Experimental data reported in paper PMC12090776 (2025).

Experiments:
[1] = target: SINV 6K (Sindbis virus, UniProt P03316); assay: UV-Vis absorption of retained compound after overnight dialysis; format: binding; details: 3-4x molar excess compound, 1 h on ice, pH 7.6, 0.015% DDM; EGFP negative control
[2] = target: SARS-CoV-2 E (Severe acute respiratory syndrome coronavirus 2, UniProt P0DTC4); format: binding
Sequence of SARS-CoV-2 E (P0DTC4 whole entry): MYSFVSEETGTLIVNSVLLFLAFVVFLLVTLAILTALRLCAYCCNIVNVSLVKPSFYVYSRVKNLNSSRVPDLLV

Sequence of SINV 6K (P03316 752-806): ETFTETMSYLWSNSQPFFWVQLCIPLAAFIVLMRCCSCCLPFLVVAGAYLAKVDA

Row | SMILES | UV-Vis absorption of retained compound after overnight dialysis [1] | UV-Vis absorption of retained compound after overnight dialysis [2]
1 | CCN(c1nc(N)c(C(=O)N=C(N)N)nc1Cl)C(C)C [EIPA] | Both 6K (Fig. 2B) and E (Fig. 2C) proteins bind to the compounds | Both 6K (Fig. 2B) and E (Fig. 2C) proteins bind to the compounds
2 | N=C(N)NC(=O)c1nc(Cl)c(N2CCCCCC2)nc1N [HMA] | Both 6K (Fig. 2B) and E (Fig. 2C) proteins bind to the compounds | Both 6K (Fig. 2B) and E (Fig. 2C) proteins bind to the compounds
